Substitutions are numbered along the chain they refer to.
Key:
DP2 = target: T1, DP2 (Homo sapiens, UniProt P04440+P20036, A65V/A84D/A85E/K98E); assay: T2 cell-based competitive binding assay; conditions: T2 cells transduced with DP2; reference peptide Oxy271-287
T1 sequence (P20036 29-260): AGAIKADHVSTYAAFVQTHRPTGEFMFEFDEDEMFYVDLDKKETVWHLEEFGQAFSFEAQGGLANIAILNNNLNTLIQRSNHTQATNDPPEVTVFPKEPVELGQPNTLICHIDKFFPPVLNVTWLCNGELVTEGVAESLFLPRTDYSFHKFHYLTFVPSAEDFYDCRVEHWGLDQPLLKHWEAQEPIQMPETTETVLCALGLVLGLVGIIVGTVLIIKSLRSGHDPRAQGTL
T1 sequence (P04440 30-258 A65V/A84D/A85E/K98E): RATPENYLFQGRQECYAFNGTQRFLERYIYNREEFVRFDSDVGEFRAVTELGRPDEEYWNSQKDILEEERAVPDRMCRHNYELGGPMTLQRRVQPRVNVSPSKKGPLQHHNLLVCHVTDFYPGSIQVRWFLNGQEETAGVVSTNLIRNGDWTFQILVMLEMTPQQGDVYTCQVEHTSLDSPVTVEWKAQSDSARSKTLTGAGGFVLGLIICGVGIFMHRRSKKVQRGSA

DP4 = target: T2, DP4 (Homo sapiens, UniProt P04440+P20036); assay: T2 cell-based competitive binding assay; conditions: T2 cells transduced with DP4; reference peptide Oxy271-287
T2 construct: expressed in transfected cells; host or cells: T2 cells, retrovirally transduced (pMX vector)
T2 sequence (P20036 29-260): T1 sequence (P20036 29-260)
T2 sequence (P04440 30-258): T1 sequence (P04440 30-258 A65V/A84D/A85E/K98E) with V36A, D55A, E56A, E69K

Row | Sequence | IC50 value, displacement of reference peptide (DP2) | IC50 value, displacement of reference peptide (DP4)
1 | CMTWNQMNL [WT1235-243, known HLA-A2 restricted peptide, negative control, reference compound] | failed to displace reference peptide at any tested concentration | failed to displace reference peptide at any tested concentration
2 | PGCNKRYFKLSHLQMHSRKHT [WT1328-348] | comparable to TT947-967 | comparable to TT947-967

Reference: patent US20260042827A1, “ANTI-WT1 ANTIGEN-BINDING PROTEINS AND USES THEREOF” (UNIVERSITY HEALTH NETWORK, priority 2022, published 2026)
